# In patent US20230023092A1, “TREATMENT OF DEPRESSION AND OTHER VARIOUS DISORDERS WITH PSILOCYBIN” (COMPASS […], priority 2019, published 2023):
# Key:
# subjects = settings: 20 mg escitalopram; cited from earlier work
# [1] = post-ingestion; cited from earlier work
# Wistar-Kyoto (WKY) rats = assay: Sleep-wake scoring (EEG/EMG: wake, NREM, REM) in rat model of TRD; format: in vivo; settings: 5 and 10 mg/kg, s.c.
# Source text: Since WKY rats show decreased sensitivity to conventional monoamine-based antidepressant treatment, they are used as a model of TRD.
# Male (WKY) rats (200-250 g) were implanted with electroencephalography (EEG) and electromyography (EMG) electrodes and telemetry transmitters under general anesthesia (2-5% isoflurane in Oxygen). A telemetry transmitter (HD-502, Data Sciences International) was placed in the peritoneal cavity, and the wires of the transmitter were passed through the muscle wall and then sub-dermally to the scalp to act as EEG/EMG electrodes. Two bore holes were made in the skull (Fronto-parietal coordinates; Bregma +2 mm anterior, midline +1.0 mm lateral and Lambda 0 mm, +1.5 mm lateral). The positive EEG electrode was attached to the anterior bore hole and the negative EEG electrode to the posterior bore hole. Both electrodes were secured in place using a suitable adhesive agent (Cyanoacrylate gel, RS components). […]
# Animals were maintained on a 12/12 hour light dark cycle. On study days, the animals were placed in recording boxes and EEG/EMG, locomotor activity, as well as body temperature were recorded for 0.5 hours before and 24 hours after each dosing. […]
# The subsequent EEG/EMG recordings were automatically scored as wake, non-REM (NREM) sleep, or REM sleep in 10 second epochs using SleepSign (Kissei Comtec, Japan). […]
Compound,Frequency of common side effects: agitation or restlessness; diarrhea; difficulty sleeping; drowsiness; dry mouth; headache; nausea; sexual difficulties; dizziness; sweating (subjects),Time to peak plasma concentration [1],Amount of REM sleep (Wistar-Kyoto (WKY) rats)
CN(C)CCC[C@@]1(c2ccc(F)cc2)OCc2cc(C#N)ccc21 [escitalopram],Common (~10% at 20 mg escitalopram),3 to 4 h,
CNC1(c2ccccc2Cl)CCCCC1=O (stereo not drawn) [ketamine],,,decreased the amount of REM sleep in a dose-dependent manner
